Laboratory results published in ChEMBL document CHEMBL3885881, “DrugMatrix”.

Species on record: Rattus norvegicus
Assay: DrugMatrix - Regimen: Daily Repeat
Type: toxicity, organism-based, Sprague-Dawley
Parameters: regimen Daily Repeat, gender Male, age 6-8 weeks
Conditions: in vivo, po, route oral GAVAGE, vehicle .5 % CMC; for ABSOLUTE BASOPHIL / ABSOLUTE EOSINOPHIL / ABSOLUTE LYMPHOCYTE / ABSOLUTE MONOCYTE / ABSOLUTE SEGMENTED NEUTROPHIL / BASOPHIL / EOSINOPHIL / ERYTHROCYTE COUNT / HEMATOCRIT / HEMOGLOBIN / LEUKOCYTE COUNT / LYMPHOCYTE / MEAN CORPUSCULAR HEMOGLOBIN / MEAN CORPUSCULAR HEMOGLOBIN CONCENTRATION / MEAN CORPUSCULAR VOLUME / MONOCYTE / NEUTROPHIL / NUCLEATED RED BLOOD CELLS / PLATELET COUNT: tissue Blood; for ALANINE AMINOTRANSFERASE / ALBUMIN / ALKALINE PHOSPHATASE / ASPARTATE AMINOTRANSFERASE / BLOOD UREA NITROGEN / CARBON DIOXIDE / CHLORIDE / CHOLESTEROL / CREATINE PHOSPHOKINASE / CREATININE / GLUCOSE / LACTATE DEHYDROGENASE / LIPASE / PHOSPHORUS / POTASSIUM / SODIUM / TOTAL BILIRUBIN / TOTAL PROTEIN / URIC ACID: tissue Plasma
[1] = 0 mg/kg, 72 h, dose level Control, time 3 day
[2] = 0 mg/kg, 120 h, dose level Control, time 5 day
[3] = 4.5 mg/kg, 72 h, dose level Low, time 3 day

SMILES: CC(C(=O)O)c1ccc(-c2ccccc2)c(F)c1 (centres undefined) [FLURBIPROFEN]
- ABSOLUTE BASOPHIL [1]: 0 CELLS/uL
- ABSOLUTE EOSINOPHIL [1]: 222.83 CELLS/uL
- ABSOLUTE LYMPHOCYTE [1]: 14453 CELLS/uL
- ABSOLUTE MONOCYTE [1]: 0 CELLS/uL
- ABSOLUTE SEGMENTED NEUTROPHIL [1]: 1490.83 CELLS/uL
- BASOPHIL [1]: 0%
- EOSINOPHIL [1]: 1.33%
- ERYTHROCYTE COUNT [1]: 5.76 x10E6/uL
- HEMATOCRIT [1]: 36.52%
- HEMOGLOBIN [1]: 13.45 G/DL
- LEUKOCYTE COUNT [1]: 16.17 x10E3/uL
- LYMPHOCYTE [1]: 89.33%
- MEAN CORPUSCULAR HEMOGLOBIN [1]: 23.37 pg
- MEAN CORPUSCULAR HEMOGLOBIN CONCENTRATION [1]: 36.85 G/DL
- MEAN CORPUSCULAR VOLUME [1]: 63.47 fL
- MONOCYTE [1]: 0%
- NEUTROPHIL [1]: 9.33%
- NUCLEATED RED BLOOD CELLS [1]: 0 /100WBC
- PLATELET COUNT [1]: 1239.5 x10E3/uL
- ALANINE AMINOTRANSFERASE [1]: 43.83 u/L
- ALBUMIN [1]: 4.27 G/DL
- ALKALINE PHOSPHATASE [1]: 398.83 u/L
- ASPARTATE AMINOTRANSFERASE [1]: 81.17 u/L
- BLOOD UREA NITROGEN [1]: 17.67 mg/dL
- CARBON DIOXIDE [1]: 27.5 mmol/L
- CHLORIDE [1]: 99.17 MEQ/L
- CHOLESTEROL [1]: 74 mg/dL
- CREATINE PHOSPHOKINASE [1]: 331.5 u/L
- CREATININE [1]: 0.2 mg/dL
- GLUCOSE [1]: 171.33 mg/dL
- LACTATE DEHYDROGENASE [1]: 241.67 u/L
- LIPASE [1]: 9.5 u/L
- PHOSPHORUS [1]: 12.25 mg/dL
- POTASSIUM [1]: 6.33 MEQ/L
- SODIUM [1]: 141.28 MEQ/L
- TOTAL BILIRUBIN [1]: 0.15 mg/dL
- TOTAL PROTEIN [1]: 5.98 G/DL
- URIC ACID [1]: 1.63 mg/dL
- ABSOLUTE BASOPHIL [2]: 0 CELLS/uL
- ABSOLUTE EOSINOPHIL [2]: 148.67 CELLS/uL
- ABSOLUTE LYMPHOCYTE [2]: 16020.5 CELLS/uL
- ABSOLUTE MONOCYTE [2]: 29.17 CELLS/uL
- ABSOLUTE SEGMENTED NEUTROPHIL [2]: 1468.33 CELLS/uL
- BASOPHIL [2]: 0%
- EOSINOPHIL [2]: 1%
- ERYTHROCYTE COUNT [2]: 5.78 x10E6/uL
- HEMATOCRIT [2]: 35.77%
- HEMOGLOBIN [2]: 13.4 G/DL
- LEUKOCYTE COUNT [2]: 17.67 x10E3/uL
- LYMPHOCYTE [2]: 90.5%
- MEAN CORPUSCULAR HEMOGLOBIN [2]: 23.22 pg
- MEAN CORPUSCULAR HEMOGLOBIN CONCENTRATION [2]: 37.47 G/DL
- MEAN CORPUSCULAR VOLUME [2]: 61.92 fL
- MONOCYTE [2]: 0.17%
- NEUTROPHIL [2]: 8.33%
- NUCLEATED RED BLOOD CELLS [2]: 0.17 /100WBC
- PLATELET COUNT [2]: 1255.5 x10E3/uL
- ALANINE AMINOTRANSFERASE [2]: 46.5 u/L
- ALBUMIN [2]: 4.38 G/DL
- ALKALINE PHOSPHATASE [2]: 336 u/L
- ASPARTATE AMINOTRANSFERASE [2]: 76.5 u/L
- BLOOD UREA NITROGEN [2]: 20 mg/dL
- CARBON DIOXIDE [2]: 27.5 mmol/L
- CHLORIDE [2]: 101 MEQ/L
- CHOLESTEROL [2]: 71.33 mg/dL
- CREATINE PHOSPHOKINASE [2]: 231.83 u/L
- CREATININE [2]: 0.37 mg/dL
- GLUCOSE [2]: 168.83 mg/dL
- LACTATE DEHYDROGENASE [2]: 174 u/L
- LIPASE [2]: 8.67 u/L
- PHOSPHORUS [2]: 11.48 mg/dL
- POTASSIUM [2]: 6.82 MEQ/L
- SODIUM [2]: 143.8 MEQ/L
- TOTAL BILIRUBIN [2]: 0.2 mg/dL
- TOTAL PROTEIN [2]: 5.98 G/DL
- URIC ACID [2]: 1.83 mg/dL
- ABSOLUTE BASOPHIL [3]: 0 CELLS/uL
- ABSOLUTE EOSINOPHIL [3]: 292.33 CELLS/uL
- ABSOLUTE LYMPHOCYTE [3]: 14732.33 CELLS/uL
- ABSOLUTE MONOCYTE [3]: 0 CELLS/uL
- ABSOLUTE SEGMENTED NEUTROPHIL [3]: 2542 CELLS/uL
- BASOPHIL [3]: 0%
- EOSINOPHIL [3]: 1.67%
- ERYTHROCYTE COUNT [3]: 5.5 x10E6/uL
- HEMATOCRIT [3]: 34.7%
- HEMOGLOBIN [3]: 12.83 G/DL
- LEUKOCYTE COUNT [3]: 17.57 x10E3/uL
- LYMPHOCYTE [3]: 83.67%
- MEAN CORPUSCULAR HEMOGLOBIN [3]: 23.33 pg
- MEAN CORPUSCULAR HEMOGLOBIN CONCENTRATION [3]: 36.97 G/DL
- MEAN CORPUSCULAR VOLUME [3]: 63.03 fL
- MONOCYTE [3]: 0%
- NEUTROPHIL [3]: 14.67%
- NUCLEATED RED BLOOD CELLS [3]: 0 /100WBC
- PLATELET COUNT [3]: 1184.67 x10E3/uL
- ALANINE AMINOTRANSFERASE [3]: 49.67 u/L
- ALBUMIN [3]: 3.57 G/DL
- ALKALINE PHOSPHATASE [3]: 319 u/L
- ASPARTATE AMINOTRANSFERASE [3]: 69.33 u/L
- BLOOD UREA NITROGEN [3]: 13.33 mg/dL
- CARBON DIOXIDE [3]: 30 mmol/L
- CHLORIDE [3]: 99.67 MEQ/L
- CHOLESTEROL [3]: 69 mg/dL
- CREATINE PHOSPHOKINASE [3]: 219.67 u/L
- CREATININE [3]: 0.25 mg/dL
- GLUCOSE [3]: 168.33 mg/dL
- LACTATE DEHYDROGENASE [3]: 123.67 u/L
- LIPASE [3]: 8.33 u/L
- PHOSPHORUS [3]: 12.13 mg/dL
- POTASSIUM [3]: 6.57 MEQ/L
- SODIUM [3]: 143.2 MEQ/L
- TOTAL BILIRUBIN [3]: 0.23 mg/dL
- TOTAL PROTEIN [3]: 5.37 G/DL
- URIC ACID [3]: 1.77 mg/dL
